The values below come from patent US5691373A, “Nonpeptide endothelin antagonists I” (Warner-Lambert Company, priority 1995, dated 1997).

Read-outs that look alike come from different tables or passages of the source. Where a SMILES comes first, the peptide text is derived from it. [ ]: non-standard residue; d: D form.

The IC50 is the concentration that inhibits the measured activity by half.

The target in assay [1] is T1, ETA (Oryctolagus cuniculus, UniProt A5A8K3).
T1 sequence (A5A8K3 21-427): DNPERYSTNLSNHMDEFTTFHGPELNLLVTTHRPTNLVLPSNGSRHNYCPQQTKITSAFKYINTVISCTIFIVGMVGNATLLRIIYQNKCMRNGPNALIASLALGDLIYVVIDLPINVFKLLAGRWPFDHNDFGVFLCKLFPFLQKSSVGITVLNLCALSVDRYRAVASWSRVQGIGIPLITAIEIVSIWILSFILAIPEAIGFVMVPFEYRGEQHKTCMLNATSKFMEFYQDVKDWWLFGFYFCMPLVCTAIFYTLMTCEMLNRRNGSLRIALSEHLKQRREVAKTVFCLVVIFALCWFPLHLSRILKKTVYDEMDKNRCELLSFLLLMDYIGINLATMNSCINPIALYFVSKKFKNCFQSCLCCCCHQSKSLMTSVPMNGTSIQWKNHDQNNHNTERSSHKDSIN
Briefly: VERA-A: antagonism of ET-1 stimulated vasoconstriction in the rabbit femoral artery (ETA). In kind it is cell-based. To be noted: ET-1, rabbit femoral artery; for Kb: read-out: VERA-A pA2 (converted). The method in brief: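 Endothelium-denuded 4-mm rings of femoral and pulmonary artery from male New Zealand rabbits. Resting tension 3.0 g for femoral and 4.0 g for pulmonary rings, with 90 min equilibration.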

Assay [2] has as its target T2, ETB (Rattus norvegicus, UniProt P21451).
T2 sequence (P21451 27-442): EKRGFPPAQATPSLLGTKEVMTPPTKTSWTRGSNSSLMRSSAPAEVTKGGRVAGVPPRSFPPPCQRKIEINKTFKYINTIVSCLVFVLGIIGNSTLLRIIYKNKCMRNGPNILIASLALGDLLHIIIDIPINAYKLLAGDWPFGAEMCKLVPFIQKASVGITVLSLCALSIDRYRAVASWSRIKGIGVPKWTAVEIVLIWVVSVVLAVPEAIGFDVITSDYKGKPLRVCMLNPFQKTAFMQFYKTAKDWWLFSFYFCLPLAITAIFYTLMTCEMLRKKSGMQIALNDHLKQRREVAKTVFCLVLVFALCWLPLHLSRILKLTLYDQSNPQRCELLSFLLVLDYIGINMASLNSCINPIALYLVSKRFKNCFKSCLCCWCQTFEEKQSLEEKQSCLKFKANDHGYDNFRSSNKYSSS
Method: The tissue is made up of 20 mM tris(hydroxymethyl)aminomethane hydrochloride (Trizma) buffer, 2 mM ethylenediaminetetra acetate, 100 μM phenylmethylsulfonyl fluoride.
First, thaw one aliquot of frozen rat cerebellar membranes (2 mg protein in 0.5 mL). Next, add 0.5 mL membrane aliquot to 4.5 mL cold tissue buffer, polytron at 7,500 revolutions per minute for 10 seconds. Finally, dilute tissue suspension 1/100 (0.1 mL suspension+9.9 mL tissue buffer), polytron again, and place ice.
Mix in 150 μL of tissue to each tube, vortex briefly, then tap to force all liquids to bottom (total assay volume=250 μL). Then place the tubes in a 37° C. water bath for 2 hours.
Add 2.5 mL cold wash buffer (50 mM Trizma buffer) to each tube, filter, and then wash tube with additional 2.5 mL wash buffer and add to filter. Finally, wash filters with an additional 2.5 mL of cold wash buffer.
Count filters for radioactivity in gamma counter.

Assay [3] has as its target T1, ETA.
The target in assay [4] is T1, ETA. This is another data set of the same source.
In assay [5] the test system is cerebral vasospasm. To be noted: cited from earlier work; for early cerebral vasospasm following SAH: rat.
Assay [6] concerns cerebral vasospasm. To be noted: cited from earlier work.
For assay [7], the system named is ET-1 induced bronchoconstriction and tracheal smooth muscle contraction. To be noted: allergic sheep; cited from earlier work.
In assay [8] the test system is endotoxic shock. To be noted: cited from earlier work.
For assay [9], the system named is cerebral vasospasm. To be noted: in vivo; cited from earlier work.
In assay [10] the test system is acute renal ischemia. To be noted: rats; cited from earlier work.
Assay [11] has as its system ETB. To be noted: isolated, endothelium-intact porcine pulmonary arteries; cited from earlier work.
Assay [12] concerns ET-1 Induced Pressor Response. Briefly: inhibition of ET-1 induced pressor response in anesthetized ganglionic blocked rats. In kind it is in vivo, rat (Sprague Dawley). To be noted: IV, ET-1 1 nm/kg. The method, then: Antagonists were administered IV bolus (3, 10, 30, 100 μmol/kg, IV bolus) in separate groups of rats (5 minutes before ET-1 challenge [see Haleen, et al., J. Cardiovasc, Pharm., 22(Suppl. 8):598-5102 (1993)]). Duration of action of the antagonist was determined in conscious, chronically prepared normotensive rats. Rats were challenged with ET-1 (1.0 nmol/kg, IV bolus) on 5 consecutive days; Day =b 1 =l control and on Days 2-5 at 5, 20, 60, and 120 minutes following treatment with the antagonist. Separate groups of rats were used for each antagonist treatment.

For assay [13], the target named is T3, human ETB receptor (Homo sapiens, UniProt P24530).
T3 construct: expressed in transfected cells; host or cells: CHO-K1 cells, pRc-CMW (so in the source) expression vector, electroporation; membranes used
T3 sequence (P24530 27-442): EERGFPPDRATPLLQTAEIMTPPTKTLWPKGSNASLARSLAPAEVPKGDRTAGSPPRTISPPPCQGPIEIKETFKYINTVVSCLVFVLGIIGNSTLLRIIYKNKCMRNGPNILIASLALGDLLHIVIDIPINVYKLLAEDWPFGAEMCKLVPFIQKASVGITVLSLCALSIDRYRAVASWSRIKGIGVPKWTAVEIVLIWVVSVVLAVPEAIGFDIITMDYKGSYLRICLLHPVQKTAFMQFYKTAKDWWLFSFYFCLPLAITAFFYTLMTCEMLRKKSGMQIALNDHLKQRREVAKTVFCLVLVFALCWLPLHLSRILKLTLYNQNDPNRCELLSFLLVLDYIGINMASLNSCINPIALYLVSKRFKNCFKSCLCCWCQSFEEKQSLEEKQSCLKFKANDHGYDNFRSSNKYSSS
Briefly: ERBA-B: [125I]-ET-1 binding, recombinant human ETB receptor expressed in CHO-K1 cells. To be noted: human cloned ETB receptor, read-out: ERBA-B IC50, human cloned receptor data.

The test system of assay [14] is ETA. To be noted: cited from earlier work.
[15] abbreviates: ERBA-A IC50, [125I]-ET-1, rabbit renal artery vascular smooth muscle cells.

For `CCCOc1cccc(CC2=C(c3ccc4c(c3)OCO4)C(=O)OC2(O)c2ccc(OC)cc2)c1` (stereo not shown) [Example 159, 3-Benzo[1,3]dioxol-5-yl-5-hydroxy-5-(4-methoxyphenyl)-4-(3-propoxybenzyl)-5 H-furan-2-one], in [1], the Kb was 100 nM. For the same molecule, the figures for the half-inhibitory concentration (IC50) in [2], in assay [3] (setting [15]) and in assay [4] were 560 nM, 12 nM and 36 nM, respectively.

Take `CC(C)C[C@@H]1NC(=O)[C@@H](C(C)C)NC(=O)[C@@H]2CCCN2C(=O)[C@@H](CC(=O)O)NC(=O)[C@@H](Cc2c[nH]c3ccccc23)NC1=O` [BQ-123] (cyclo(L[dW][dD]P[dV])): the “early cerebral vasospasm following SAH” value in assay [5] and in assay [6] (rabbit) was “prevents early cerebral vasospasm following SAH” in each case. In addition, the “ET-1 induced bronchoconstriction and tracheal smooth muscle contraction” value in assay [7] is “block ET-1 induced bronchoconstriction and tracheal smooth muscle contraction”. For the same molecule, the survival rate result in assay [8] is “significantly increased the survival rate”. For the same molecule, in [9], the “early cerebral vasospasm following subarachnoid hemorrhage” value is “prevent early cerebral vasospasm following subarachnoid hemorrhage”.

With `COc1cccc(Oc2c(NS(=O)(=O)c3ccc(C(C)(C)C)cc3)ncnc2OCCO)c1` [Ro 46-2005], the “systemic arterial blood pressure” value in assay [5] (rat with SAH) is recorded as “no significant effect on systemic arterial blood pressure”. In addition, the “early cerebral vasospasm following SAH” value in assay [5] is given as “prevent early cerebral vasospasm following SAH”. Further, in assay [5] (rats), the “efficacy in subarachnoid hemorrhage” value is “effective in models of acute renal ischemia and subarachnoid hemorrhage”. Further, the “efficacy in acute renal ischemia” value in assay [10] is on record as “effective in models of acute renal ischemia”.

Regarding ET[6-21, 1,3,11,15-Ala], the vasorelaxation result in [11] is on record as “caused vasorelaxation”.

As for `COc1ccc(C2(O)OC(=O)C(c3ccc4c(c3)OCO4)=C2Cc2cccc(C(F)(F)F)c2)cc1` (stereo not shown) [Example 82, 3-Benzo[1,3]dioxol-5-yl-5-hydroxy-5-(4-methoxyphenyl)-4-(3-trifluoromethylbenzyl)-5H-furan-2-one], in assay [1], the Kb is 2510 nM. The IC50 in assay [2] amounted to 1300 nM; in assay [3] (setting [15]) it was 20 nM; in assay [4], 140 nM.

On to N-Acetyl-ET[10-21,11,15-Ala], for which the vasorelaxation result in assay [11] is “caused vasorelaxation”.

On to `COc1ccc(C(=O)/C(Cc2ccccc2)=C(\C(=O)O)c2ccc3c(c2)OCO3)cc1` [Example 171, 2-Butenoic acid, 2-(1,3-benzodioxol-5-yl)-4-(4-methoxyphenyl)-4-oxo-3-(phenylmethyl)-, (Z)-, ion(1-) compd. with 2-hydroxy-N,N,N-triethanaminium (1:1)], for which the “% Inhibition on ET-1 Induced Pressor Response” value in assay [12] (3 μmol/kg) is 21%; in assay [12] (10 μmol/kg) it was 26%; in [12] (30 μmol/kg), 35%; in [12] (100 μmol/kg) it was 57%. For the same molecule, the IC50 in [2] came out at 2200 nM; in assay [3] (setting [15]), 39 nM.

Turning to ET[8-21,11,15-Ala], the vasorelaxation result in assay [11] is on record as “caused vasorelaxation”.

Turning to `CCCOc1cccc(C/C(C(=O)c2ccc(OC)cc2)=C(/C(=O)O)c2ccc3c(c2)OCO3)c1` [Example 253, 2-Butenoic acid, 2-(1,3-benzodioxol-5-yl)-4-(4-methoxyphenyl)-4-oxo-3-[(3-propoxyphenyl)methyl]-, (Z)-, ion(1-) compound with 2-hydroxy-N,N,N-trimethylethanaminium (1:1)], the IC50 in assay [13] amounted to 900 nM; in assay [3] (read-out: ERBA-A IC50, [125I]-ET-1, rabbit renal artery vascular smooth muscle cells), 17 nM. The “VERA-A pA2” value in assay [1] is on record as 7.0. For the same molecule, the “% Inhibition on ET-1 Induced Pressor Response” value in assay [12] (3 μmol/kg) was 22%; in [12] (10 μmol/kg), 42%; in assay [12] (30 μmol/kg) it was 53%.

For `Cc1noc(NS(=O)(=O)c2cccc3c(N(C)C)cccc23)c1C` [5-(Dimethylemino)-N-(3,4-dimethyl-5-isoxazolyl)-1-naphthalenesulfonamide], in assay [14], the oral antihypertensive effect result is on record as “demonstrated an oral antihypertensive effect”.

As to `COc1ccccc1Oc1c(NS(=O)(=O)c2ccc(C(C)(C)C)cc2)nc(-c2ncccn2)nc1OCCO` [Ro 47-0203, Bosentan], the “reduction of basilar artery cross-sectional area compared to sham” value in assay [6] (rabbits with SAH) is 36±7%.
